Data taken from ChEMBL document CHEMBL1128205, “Design and synthesis of conformationally constrained analogues of 4-(3-butoxy-4-methoxybenzyl)imidazolidin-2-one (Ro 20-1724) as potent inhibitors of cAMP-specific phosphodiesterase” (J Med Chem, 1995).
pIC50, pKi: −log10 of the molar value.

Assays:
[1] = target: 3',5'-cyclic-AMP phosphodiesterase 4B (Homo sapiens, UniProt Q07343); test: Inhibition of human Phosphodiesterase 4B
Homo sapiens = organism: Homo sapiens; test: Inhibition of LPS-induced TNF-alpha secretion from purified human peripheral blood monocytes; type: functional

Sequence of 3',5'-cyclic-AMP phosphodiesterase 4B (Q07343 whole entry): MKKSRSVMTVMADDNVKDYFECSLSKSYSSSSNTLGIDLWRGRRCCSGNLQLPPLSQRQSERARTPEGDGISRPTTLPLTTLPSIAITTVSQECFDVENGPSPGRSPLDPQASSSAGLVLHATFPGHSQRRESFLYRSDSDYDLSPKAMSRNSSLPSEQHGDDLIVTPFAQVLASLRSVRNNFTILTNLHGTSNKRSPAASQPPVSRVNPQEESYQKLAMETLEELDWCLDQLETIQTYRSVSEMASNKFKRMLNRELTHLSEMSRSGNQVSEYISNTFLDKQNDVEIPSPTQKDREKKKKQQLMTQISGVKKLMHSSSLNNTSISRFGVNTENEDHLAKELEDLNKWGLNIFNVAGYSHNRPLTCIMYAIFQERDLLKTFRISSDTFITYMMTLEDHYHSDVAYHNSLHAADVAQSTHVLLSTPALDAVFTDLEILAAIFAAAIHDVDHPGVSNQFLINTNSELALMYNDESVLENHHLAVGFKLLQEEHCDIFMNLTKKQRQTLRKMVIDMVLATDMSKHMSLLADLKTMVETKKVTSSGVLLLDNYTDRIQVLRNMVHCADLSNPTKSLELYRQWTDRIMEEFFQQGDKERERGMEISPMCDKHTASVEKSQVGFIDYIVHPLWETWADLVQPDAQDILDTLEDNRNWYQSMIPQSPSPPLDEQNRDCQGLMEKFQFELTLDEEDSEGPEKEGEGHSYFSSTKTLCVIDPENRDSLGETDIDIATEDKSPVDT

Row | SMILES | pKi [1] | pIC50 (Homo sapiens)
1 | COc1ccc([C@H]2CCN3C(=O)OC[C@@H]23)cc1OC1CCCC1 | 6.55 | –
2 | COc1ccc([C@H]2CCN3C(=O)CC[C@H]23)cc1OC1CCCC1 | 7.20 | –
3 | COc1ccc([C@H]2CCN3C(=O)NC[C@@H]23)cc1OC1CCCC1 | 6.23 | –
4 | COc1ccc([C@H]2CCN3C(=O)NC[C@H]23)cc1OC1CCCC1 | 7.57 | 6.54
5 | COc1ccc([C@H]2CCN3C(=O)OC[C@H]23)cc1OC1CCCC1 | 7.15 | –
6 | COc1ccc([C@H]2CCN3C(=O)CC[C@@H]23)cc1OC1CCCC1 | 6.47 | –

Continued, values first:

Row | pKi [1] | pIC50 (Homo sapiens) | SMILES
7 | 6.35 | – | COc1ccc(CC2CNC(=O)N2)cc1OC1CCCC1 (stereo not given)
8 | – | 5.74 | CCCCOc1cc(CC2CNC(=O)N2)ccc1OC (stereo not given) [RO-201724]
9 | – | 6.49 | COc1ccc(C2CNC(=O)C2)cc1OC1CCCC1 (stereo not given) [ROLIPRAM]
